Experimental data taken from the supplement of paper PMC8671470.

Columns and labels:
Settings in all cases: 72 h
[1] = test system: BV-173
Outline: (§1)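 Dose–response data were fitted with a four-parameter log-logistic model. They came from fifteen myeloid leukaemia lines treated in duplicate with five tenfold doses from 1 to 10,000 nM for 72 h at 37 °C with 5% CO2, with ATP viability normalised to vehicle and to a positive control at 10 µM. The IC50 was derived from these fits.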

[2] = test system: HEL
Outline: as §1

[3] = test system: HL-60
Outline: as §1

[4] = test system: K-562
Outline: as §1

[5] = test system: KCL-22
Outline: as §1

[6] = test system: KG-1
Outline: as §1

[7] = test system: KU-812
Outline: as §1

[8] = test system: LAMA-84
Outline: as §1

[9] = test system: ML-2
Outline: as §1

[10] = test system: MOLM-13
Outline: as §1

[11] = test system: MV4-11
Outline: as §1

[12] = test system: Mono-Mac-6
Outline: as §1

[13] = test system: NOMO-1
Outline: as §1

[14] = test system: SHI-1
Outline: as §1

[15] = test system: THP-1
Outline: as §1

[16] = test system: BV-173; experiment: cell viability (% survival relative to DMSO control, bortezomib = 0%); higher = less cytotoxic
Outline: (§2)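 Seeding density for each of the 10 AML and 5 CML cell lines was titrated to the linear growth range. Cells went into 384-well plates pre-printed in duplicate with compounds at 1, 10, 100, 1000 or 10000 nM and were held for 72 h at 37 °C with 5% CO2. CellTiter-Glo luminescence then provided the readout. Percent survival is expressed relative to vehicle at 100% and a 10 µM positive control at 0%, averaged over duplicates.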

[17] = test system: HEL; experiment: as above
Outline: as §2

[18] = test system: HL-60; experiment: as above
Outline: as §2

[19] = test system: K-562; experiment: as above
Outline: as §2

[20] = test system: KCL-22; experiment: as above
Outline: as §2

[21] = test system: KG-1; experiment: as above
Outline: as §2

[22] = test system: KU-812; experiment: as above
Outline: as §2

[23] = test system: LAMA-84; experiment: as above
Outline: as §2

[24] = test system: ML-2; experiment: as above
Outline: as §2

[25] = test system: MOLM-13; experiment: as above
Outline: as §2

[26] = test system: MV4-11; experiment: as above
Outline: as §2

[27] = test system: Mono-Mac-6; experiment: as above
Outline: as §2

[28] = test system: NOMO-1; experiment: as above
Outline: as §2

[29] = test system: SHI-1; experiment: as above
Outline: as §2

[30] = test system: THP-1; experiment: as above
Outline: as §2

CO[C@H]1C[C@@H]2CC[C@@H](C)[C@@](O)(O2)C(=O)C(=O)N2CCCC[C@H]2C(=O)O[C@H]([C@H](C)C[C@@H]2CC[C@@H](OCCO)[C@H](OC)C2)CC(=O)[C@H](C)/C=C(\C)[C@@H](O)[C@@H](OC)C(=O)[C@H](C)C[C@H](C)/C=C/C=C/C=C/1C [Everolimus]
IC50 (cell viability) [1]: 4.11 nM | IC50 (cell viability) [2]: 2.74 nM | IC50 (cell viability) [3]: 3920 nM | IC50 (cell viability) [4]: 3.42 nM | IC50 (cell viability) [5]: 1.21 nM | IC50 (cell viability) [6]: < 1 nM | IC50 (cell viability) [7]: < 1 nM | IC50 (cell viability) [8]: 782 nM | IC50 (cell viability) [9]: 1530 nM | IC50 (cell viability) [10]: < 1 nM | IC50 (cell viability) [11]: 248 nM | IC50 (cell viability) [12]: 1.04 nM | IC50 (cell viability) [13]: 22.5 nM | IC50 (cell viability) [14]: 1.15 nM | IC50 (cell viability) [15]: 1.65 nM | cell viability ([16]; 1 nM): 79.3% | cell viability ([16]; 10 nM): 51.9% | cell viability ([16]; 100 nM): 56% | cell viability ([16]; 1000 nM): 43.6% | cell viability ([16]; 10000 nM): 34.3% | cell viability ([17]; 1 nM): 94.9% | cell viability ([17]; 10 nM): 65.6% | cell viability ([17]; 100 nM): 67% | cell viability ([17]; 1000 nM): 62.3% | cell viability ([17]; 10000 nM): 58.5% | cell viability ([18]; 1 nM): 91.4% | cell viability ([18]; 10 nM): 75.6% | cell viability ([18]; 100 nM): 86.3% | cell viability ([18]; 1000 nM): 54.9% | cell viability ([18]; 10000 nM): 43% | cell viability ([19]; 1 nM): 71% | cell viability ([19]; 10 nM): 50.4% | cell viability ([19]; 100 nM): 48.8% | cell viability ([19]; 1000 nM): 44.5% | cell viability ([19]; 10000 nM): 30.6% | cell viability ([20]; 1 nM): 66% | cell viability ([20]; 10 nM): 44.6% | cell viability ([20]; 100 nM): 36.2% | cell viability ([20]; 1000 nM): 33.8% | cell viability ([20]; 10000 nM): 24.6% | cell viability ([21]; 1 nM): 54.3% | cell viability ([21]; 10 nM): 45.1% | cell viability ([21]; 100 nM): 41% | cell viability ([21]; 1000 nM): 37.3% | cell viability ([21]; 10000 nM): 30.5% | cell viability ([22]; 1 nM): 58.5% | cell viability ([22]; 10 nM): 44.9% | cell viability ([22]; 100 nM): 44.8% | cell viability ([22]; 1000 nM): 39.4% | cell viability ([22]; 10000 nM): 36% | cell viability ([23]; 1 nM): 72.2% | cell viability ([23]; 10 nM): 52.8% | cell viability ([23]; 100 nM): 62.8% | cell viability ([23]; 1000 nM): 53.7% | cell viability ([23]; 10000 nM): 37.9% | cell viability ([24]; 1 nM): 88.7% | cell viability ([24]; 10 nM): 77.3% | cell viability ([24]; 100 nM): 66.6% | cell viability ([24]; 1000 nM): 58.6% | cell viability ([24]; 10000 nM): 33.8% | cell viability ([25]; 1 nM): 49% | cell viability ([25]; 10 nM): 38.1% | cell viability ([25]; 100 nM): 48.3% | cell viability ([25]; 1000 nM): 29.7% | cell viability ([25]; 10000 nM): 34.6% | cell viability ([26]; 1 nM): 62.1% | cell viability ([26]; 10 nM): 64.6% | cell viability ([26]; 100 nM): 61.8% | cell viability ([26]; 1000 nM): 53.6% | cell viability ([26]; 10000 nM): 22.6% | cell viability ([27]; 1 nM): 74.2% | cell viability ([27]; 10 nM): 46.4% | cell viability ([27]; 100 nM): 53.1% | cell viability ([27]; 1000 nM): 40.7% | cell viability ([27]; 10000 nM): 44.2% | cell viability ([28]; 1 nM): 79.7% | cell viability ([28]; 10 nM): 63.9% | cell viability ([28]; 100 nM): 72.7% | cell viability ([28]; 1000 nM): 60.4% | cell viability ([28]; 10000 nM): 56.8% | cell viability ([29]; 1 nM): 81.8% | cell viability ([29]; 10 nM): 60.4% | cell viability ([29]; 100 nM): 65.8% | cell viability ([29]; 1000 nM): 56.7% | cell viability ([29]; 10000 nM): 55.7% | cell viability ([30]; 1 nM): 83.8% | cell viability ([30]; 10 nM): 67.5% | cell viability ([30]; 100 nM): 66.9% | cell viability ([30]; 1000 nM): 59.8% | cell viability ([30]; 10000 nM): 58.9%

O=C1C(SCCO)=C(SCCO)C(=O)c2ccccc21
IC50 (cell viability) [1]: 309 nM | IC50 (cell viability) [2]: 1510 nM | IC50 (cell viability) [3]: 3230 nM | IC50 (cell viability) [4]: 549 nM | IC50 (cell viability) [5]: 664 nM | IC50 (cell viability) [6]: 507 nM | IC50 (cell viability) [7]: 530 nM | IC50 (cell viability) [8]: 747 nM | IC50 (cell viability) [9]: 307 nM | IC50 (cell viability) [10]: 381 nM | IC50 (cell viability) [11]: 219 nM | IC50 (cell viability) [12]: 664 nM | IC50 (cell viability) [13]: 370 nM | IC50 (cell viability) [14]: 450 nM | IC50 (cell viability) [15]: 424 nM | cell viability ([16]; 1 nM): 107% | cell viability ([16]; 10 nM): 106% | cell viability ([16]; 100 nM): 98.5% | cell viability ([16]; 1000 nM): 0.154% | cell viability ([16]; 10000 nM): -0.205% | cell viability ([17]; 1 nM): 110% | cell viability ([17]; 10 nM): 107% | cell viability ([17]; 100 nM): 103% | cell viability ([17]; 1000 nM): 69.8% | cell viability ([17]; 10000 nM): -0.489% | cell viability ([18]; 1 nM): 123% | cell viability ([18]; 10 nM): 115% | cell viability ([18]; 100 nM): 122% | cell viability ([18]; 1000 nM): 101% | cell viability ([18]; 10000 nM): -0.447% | cell viability ([19]; 1 nM): 98.9% | cell viability ([19]; 10 nM): 98.8% | cell viability ([19]; 100 nM): 112% | cell viability ([19]; 1000 nM): 20.6% | cell viability ([19]; 10000 nM): 0.0893% | cell viability ([20]; 1 nM): 112% | cell viability ([20]; 10 nM): 101% | cell viability ([20]; 100 nM): 89.9% | cell viability ([20]; 1000 nM): 38.3% | cell viability ([20]; 10000 nM): -0.332% | cell viability ([21]; 1 nM): 107% | cell viability ([21]; 10 nM): 90.2% | cell viability ([21]; 100 nM): 94.9% | cell viability ([21]; 1000 nM): 20.2% | cell viability ([21]; 10000 nM): -0.961% | cell viability ([22]; 1 nM): 104% | cell viability ([22]; 10 nM): 89.1% | cell viability ([22]; 100 nM): 99.2% | cell viability ([22]; 1000 nM): 20.9% | cell viability ([22]; 10000 nM): -0.694% | cell viability ([23]; 1 nM): 105% | cell viability ([23]; 10 nM): 95.6% | cell viability ([23]; 100 nM): 101% | cell viability ([23]; 1000 nM): 36.1% | cell viability ([23]; 10000 nM): 1.35% | cell viability ([24]; 1 nM): 101% | cell viability ([24]; 10 nM): 96.2% | cell viability ([24]; 100 nM): 95.8% | cell viability ([24]; 1000 nM): 2.66% | cell viability ([24]; 10000 nM): -0.682% | cell viability ([25]; 1 nM): 104% | cell viability ([25]; 10 nM): 101% | cell viability ([25]; 100 nM): 107% | cell viability ([25]; 1000 nM): 5.3% | cell viability ([25]; 10000 nM): -0.664% | cell viability ([26]; 1 nM): 96% | cell viability ([26]; 10 nM): 113% | cell viability ([26]; 100 nM): 83.9% | cell viability ([26]; 1000 nM): 0.103% | cell viability ([26]; 10000 nM): -0.335% | cell viability ([27]; 1 nM): 111% | cell viability ([27]; 10 nM): 102% | cell viability ([27]; 100 nM): 104% | cell viability ([27]; 1000 nM): 30% | cell viability ([27]; 10000 nM): -0.648% | cell viability ([28]; 1 nM): 105% | cell viability ([28]; 10 nM): 99.7% | cell viability ([28]; 100 nM): 100% | cell viability ([28]; 1000 nM): 7.84% | cell viability ([28]; 10000 nM): -0.348% | cell viability ([29]; 1 nM): 99.5% | cell viability ([29]; 10 nM): 103% | cell viability ([29]; 100 nM): 95.4% | cell viability ([29]; 1000 nM): 16.8% | cell viability ([29]; 10000 nM): -0.637% | cell viability ([30]; 1 nM): 100% | cell viability ([30]; 10 nM): 98.2% | cell viability ([30]; 100 nM): 106% | cell viability ([30]; 1000 nM): 10.8% | cell viability ([30]; 10000 nM): -1.37%
